These results are taken from ChEMBL document CHEMBL1909046, “DrugMatrix in vitro pharmacology data”.

The target in one assay is Histamine H2 receptor (Homo sapiens, UniProt P25021). Type of assay: cell membranes, CHO-K1, Membrane. As to conditions: cho-k1. Further: in other assays of this panel Not Active means under 50% inhibition at 10 µM.
The nature of assay [1]: DRUGMATRIX: Imidazoline I2, Central radioligand binding (ligand: [3H] Idazoxan). Type of assay: cell membranes, Rattus norvegicus, Wistar, Cerebral cortex, Membrane. As to conditions: Not Active = under 50% inhibition at 10 µM.
Another assay addresses Melanocortin receptor 4 (Homo sapiens, UniProt P32245). It counts as cell membranes, HEK293, Membrane. As to conditions: hek293.
The target of assay [2] is T1, Amine oxidase [flavin-containing] A (Homo sapiens, UniProt P21397).
T1 sequence (P21397 whole entry): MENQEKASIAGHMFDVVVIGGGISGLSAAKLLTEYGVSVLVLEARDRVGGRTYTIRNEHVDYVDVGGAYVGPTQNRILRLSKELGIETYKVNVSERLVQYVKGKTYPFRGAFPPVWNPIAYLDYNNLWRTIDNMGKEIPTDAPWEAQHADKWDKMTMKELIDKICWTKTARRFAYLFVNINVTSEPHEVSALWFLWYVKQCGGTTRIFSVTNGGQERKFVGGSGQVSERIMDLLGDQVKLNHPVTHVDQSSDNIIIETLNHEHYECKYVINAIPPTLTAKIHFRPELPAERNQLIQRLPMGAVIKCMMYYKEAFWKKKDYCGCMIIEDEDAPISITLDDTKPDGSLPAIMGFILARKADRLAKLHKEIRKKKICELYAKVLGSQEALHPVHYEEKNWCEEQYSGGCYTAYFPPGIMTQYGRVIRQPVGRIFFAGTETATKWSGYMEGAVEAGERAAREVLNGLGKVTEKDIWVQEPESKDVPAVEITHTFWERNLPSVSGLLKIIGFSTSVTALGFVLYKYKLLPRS
Nature of the assay: DRUGMATRIX: Monoamine Oxidase MAO-A enzyme inhibition (substrate: Kynuramine). More on the design: species or system BTI-TN-5B1-4. As to conditions: bti-tn-5b1-4; Not Active = under 50% inhibition at 10 µM.

Assay [3] has as its target Tyrosine-protein kinase Lck (Homo sapiens, UniProt P06239). As to the kind of experiment: DRUGMATRIX: Protein Tyrosine Kinase, LCK enzyme inhibition (substrate: Poly(Glu:Tyr)). Type of assay: cell-based, Insect cells. As to conditions: Not Active = under 50% inhibition at 10 µM.
Another assay deals with T2, Adenosine receptor A3 (Homo sapiens, UniProt P0DMS8).
T2 sequence (P0DMS8 whole entry): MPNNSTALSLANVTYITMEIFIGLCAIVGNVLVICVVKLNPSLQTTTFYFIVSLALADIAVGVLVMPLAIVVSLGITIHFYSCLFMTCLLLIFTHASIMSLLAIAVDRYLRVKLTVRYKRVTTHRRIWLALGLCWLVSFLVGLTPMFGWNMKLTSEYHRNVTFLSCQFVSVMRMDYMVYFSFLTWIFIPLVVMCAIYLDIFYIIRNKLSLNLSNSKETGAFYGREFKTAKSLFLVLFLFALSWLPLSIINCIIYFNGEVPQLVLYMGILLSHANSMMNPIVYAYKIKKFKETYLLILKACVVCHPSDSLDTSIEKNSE
Type of assay: cell membranes, CHO-K1, Membrane.

Chain of Histamine H2 receptor (P25021 whole entry): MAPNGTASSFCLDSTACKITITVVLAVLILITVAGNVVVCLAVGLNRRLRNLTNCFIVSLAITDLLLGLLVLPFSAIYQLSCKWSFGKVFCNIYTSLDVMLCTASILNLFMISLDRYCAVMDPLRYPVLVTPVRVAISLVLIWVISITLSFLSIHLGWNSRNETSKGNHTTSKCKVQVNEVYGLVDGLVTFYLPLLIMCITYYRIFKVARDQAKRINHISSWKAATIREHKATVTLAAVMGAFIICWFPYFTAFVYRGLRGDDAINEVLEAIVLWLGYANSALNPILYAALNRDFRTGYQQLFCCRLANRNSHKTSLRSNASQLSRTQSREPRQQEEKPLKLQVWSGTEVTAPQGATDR
Chain of Melanocortin receptor 4 (P32245 whole entry): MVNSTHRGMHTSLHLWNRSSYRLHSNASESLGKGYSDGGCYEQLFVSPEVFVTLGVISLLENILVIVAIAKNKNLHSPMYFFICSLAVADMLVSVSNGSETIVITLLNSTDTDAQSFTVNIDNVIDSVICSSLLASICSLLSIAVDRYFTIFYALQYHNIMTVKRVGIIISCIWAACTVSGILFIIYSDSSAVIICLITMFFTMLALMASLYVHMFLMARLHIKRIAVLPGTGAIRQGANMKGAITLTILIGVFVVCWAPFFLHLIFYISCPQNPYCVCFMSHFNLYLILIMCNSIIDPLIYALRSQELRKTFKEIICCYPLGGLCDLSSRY
Chain of Tyrosine-protein kinase Lck (P06239 whole entry): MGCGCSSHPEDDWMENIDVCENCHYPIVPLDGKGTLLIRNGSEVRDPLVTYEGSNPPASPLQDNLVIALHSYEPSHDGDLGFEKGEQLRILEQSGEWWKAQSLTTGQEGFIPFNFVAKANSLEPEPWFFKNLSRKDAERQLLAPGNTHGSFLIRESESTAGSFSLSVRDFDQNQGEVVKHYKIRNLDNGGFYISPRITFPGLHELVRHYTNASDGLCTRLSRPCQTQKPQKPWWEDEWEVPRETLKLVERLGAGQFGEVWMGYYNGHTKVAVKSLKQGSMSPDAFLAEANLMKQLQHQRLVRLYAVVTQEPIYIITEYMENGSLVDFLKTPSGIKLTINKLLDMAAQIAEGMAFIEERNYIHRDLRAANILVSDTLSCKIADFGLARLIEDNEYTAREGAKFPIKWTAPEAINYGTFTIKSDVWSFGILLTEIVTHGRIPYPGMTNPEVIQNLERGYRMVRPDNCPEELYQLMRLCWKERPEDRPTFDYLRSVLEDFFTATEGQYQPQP

Turning to `CC(C)CN(C[C@@H](O)[C@H](Cc1ccccc1)NC(=O)O[C@H]1CCOC1)S(=O)(=O)c1ccc(N)cc1`, the IC50 entry (at Histamine H2 receptor; in assay [1]; on Melanocortin receptor 4; in assay [2]; in assay [3] (insect cells); at Adenosine receptor A3 (cho-k1)) was “Not Active” throughout. Further, the Ki entry in assay [1] is on record as “Not Active”.
Turning to `c1ccc(Nc2ccc(Nc3ccccc3)cc2)cc1`, the IC50 result (against Histamine H2 receptor; in assay [1]; against Melanocortin receptor 4; in assay [2]; in assay [3] (insect cells); against Adenosine receptor A3 (cho-k1)) was “Not Active” in each case. Besides, the Ki result in assay [1] is listed as “Not Active”.
On to `COc1cc2c3cc1Oc1cc(ccc1O)C[C@@H]1c4c(cc(OC)c(O)c4Oc4ccc(cc4)C[C@@H]3N(C)CC2)CC[N+]1(C)C.[Cl-]`, for which the IC50 result (against Histamine H2 receptor; in assay [1]; against Melanocortin receptor 4; in assay [2]; in assay [3] (insect cells); at Adenosine receptor A3 (cho-k1)) was “Not Active” in each case. Further, the Ki entry in assay [1] is “Not Active”.
Turning to `NC(=O)N1c2ccccc2CCc2ccccc21`, the IC50 entry (at Histamine H2 receptor; in assay [1]; against Melanocortin receptor 4; in assay [2]; in assay [3] (insect cells); against Adenosine receptor A3 (cho-k1)) was “Not Active” throughout. Besides, the Ki result in assay [1] is given as “Not Active”.
Turning to `O=C1CC[C@@H](N2C(=O)c3ccccc3C2=O)C(=O)N1`, the IC50 result (at Histamine H2 receptor; in assay [1]; against Melanocortin receptor 4; in assay [2]; in assay [3] (insect cells); against Adenosine receptor A3 (cho-k1)) was “Not Active” throughout. Besides, the Ki entry in assay [1] is recorded as “Not Active”.
For `Cc1onc(O)c1CC(N)C(=O)O` (racemic) [(R,S)-AMPA], the IC50 result (at Histamine H2 receptor; in assay [1]; against Melanocortin receptor 4; in assay [2]; in assay [3] (insect cells); on Adenosine receptor A3 (cho-k1)) was “Not Active” in each case. The Ki result in assay [1] is on record as “Not Active”.
As for `Cc1ccc2cc3c(ccc4ccccc43)c3c2c1CC3` [3-METHYLCHOLANTHRENE], the IC50 result against Histamine H2 receptor was “Not Active”; in assay [1], “Not Active”; at Melanocortin receptor 4, “Not Active”; in assay [2], “Not Active”; in assay [3] (read-out: IC50), 55500 nM; on Adenosine receptor A3 (read-out: IC50), 5540 nM. For the same molecule, the results for the Ki entry (in assay [1]; at Adenosine receptor A3 (read-out: Ki)) were “Not Active” and 3130 nM, respectively.
On to `CC[C@@]1(O)C[C@H](O[C@H]2C[C@H](N(C)C)[C@H](O[C@H]3C[C@H](O)[C@H](O[C@H]4CCC(=O)[C@H](C)O4)[C@H](C)O3)[C@H](C)O2)c2c(cc3c(c2O)C(=O)c2c(O)cccc2C3=O)[C@H]1C(=O)OC` [ACLARUBICIN], for which the IC50 entry (against Histamine H2 receptor; in assay [1]; against Melanocortin receptor 4; in assay [2]; in assay [3] (insect cells); against Adenosine receptor A3 (cho-k1)) was “Not Active” throughout. Besides, the Ki entry in assay [1] was “Not Active”.
On to `Nc1nc2c(ncn2COCCO)c(=O)[nH]1` [ACYCLOVIR], for which the IC50 entry (against Histamine H2 receptor; in assay [1]; on Melanocortin receptor 4; in assay [2]; in assay [3] (insect cells); against Adenosine receptor A3 (cho-k1)) was “Not Active” each time. Besides, in assay [1], the Ki entry was “Not Active”.
With `Cc1c(C)c2c(c(C)c1O)CC[C@@](C)(CCC[C@H](C)CCC[C@H](C)CCCC(C)C)O2` [ALPHA-TOCOPHEROL], the IC50 result (at Histamine H2 receptor; in assay [1]; against Melanocortin receptor 4; in assay [2]; in assay [3] (insect cells); against Adenosine receptor A3 (cho-k1)) was “Not Active” in each case. For the same molecule, the Ki entry in assay [1] was “Not Active”.
`CN(C)c1nc(N(C)C)nc(N(C)C)n1` [ALTRETAMINE]: the IC50 entry (at Histamine H2 receptor; in assay [1]; on Melanocortin receptor 4; in assay [2]; in assay [3] (insect cells); at Adenosine receptor A3 (cho-k1)) was “Not Active” in each case. Further, in assay [1], the Ki result is listed as “Not Active”.
For the molecule `Nc1c(Br)cc(Br)cc1CN[C@H]1CC[C@H](O)CC1` [AMBROXOL], the IC50 entry (on Histamine H2 receptor; in assay [1]; at Melanocortin receptor 4; in assay [2]; in assay [3] (insect cells); at Adenosine receptor A3 (cho-k1)) was “Not Active” in each case. For the same molecule, the Ki entry in assay [1] was “Not Active”.
As to `NCCCCCC(=O)O` [AMINOCAPROIC ACID], the concentration for half-maximal inhibition (IC50) entry (against Histamine H2 receptor; in assay [1]; against Melanocortin receptor 4; in assay [2]; in assay [3] (insect cells); at Adenosine receptor A3 (cho-k1)) was “Not Active” throughout. Further, in assay [1], the Ki result is listed as “Not Active”.
Take `CCC1(c2ccc(N)cc2)CCC(=O)NC1=O` (stereo not drawn) [AMINOGLUTETHIMIDE]: the IC50 entry (on Histamine H2 receptor; in assay [1]; at Melanocortin receptor 4; in assay [2]; in assay [3] (insect cells); on Adenosine receptor A3 (cho-k1)) was “Not Active” throughout. For the same molecule, the inhibitory constant (Ki) result in assay [1] is recorded as “Not Active”.
As for `Cc1ccc(/N=C/N(C)/C=N/c2ccc(C)cc2C)c(C)c1` [AMITRAZ], the IC50 result on Histamine H2 receptor was “Not Active”; in assay [1] (read-out: IC50), 47.7 nM; against Melanocortin receptor 4 it was “Not Active”; in assay [2] it was “Not Active”; in assay [3] (insect cells), “Not Active”; on Adenosine receptor A3 (cho-k1), “Not Active”. Moreover, the Ki in assay [1] (read-out: Ki) worked out at 31.8 nM.
Consider `CCOC(=O)C1=C(COCCN)NC(C)=C(C(=O)OC)C1c1ccccc1Cl` (stereo not drawn) [AMLODIPINE], for which the IC50 result (on Histamine H2 receptor; in assay [1]; against Melanocortin receptor 4; in assay [2]; in assay [3] (insect cells); against Adenosine receptor A3 (cho-k1)) was “Not Active” each time. Moreover, the Ki result in assay [1] is on record as “Not Active”.
On to `COc1ccc(C[C@H]2NC[C@H](O)[C@H]2OC(C)=O)cc1` [ANISOMYCIN], for which the IC50 entry (at Histamine H2 receptor; in assay [1]; against Melanocortin receptor 4; in assay [2]; in assay [3] (insect cells); on Adenosine receptor A3 (cho-k1)) was “Not Active” throughout. In addition, the Ki entry (at Histamine H2 receptor; in assay [1]; on Melanocortin receptor 4; in assay [2]; in assay [3] (insect cells); at Adenosine receptor A3 (cho-k1)) was “Not Active” throughout.
As to `Nc1ncn([C@@H]2O[C@H](CO)[C@@H](O)[C@H]2O)c(=O)n1` [AZACITIDINE], the IC50 result (against Histamine H2 receptor; in assay [1]; at Melanocortin receptor 4; in assay [2]; in assay [3] (insect cells); at Adenosine receptor A3 (cho-k1)) was “Not Active” each time. Also, the Ki result in assay [1] is recorded as “Not Active”.
For the molecule `CN(C)C(=O)Oc1cc(OC(=O)N(C)C)cc(C(O)CNC(C)(C)C)c1` (stereo not drawn) [BAMBUTEROL], the IC50 entry (against Histamine H2 receptor; in assay [1]; at Melanocortin receptor 4; in assay [2]; in assay [3] (insect cells); against Adenosine receptor A3 (cho-k1)) was “Not Active” in each case. Moreover, the Ki entry in assay [1] is on record as “Not Active”.
In the case of `c1ccc2c(c1)c1cccc3ccc4cccc2c4c31` [BENZO[E]PYRENE], the IC50 result (against Histamine H2 receptor; in assay [1]; at Melanocortin receptor 4; in assay [2]; in assay [3] (insect cells); against Adenosine receptor A3 (cho-k1)) was “Not Active” each time. In addition, in assay [1], the Ki entry is recorded as “Not Active”.
Regarding `CNCCc1ccccn1` [BETAHISTINE], the IC50 entry (on Histamine H2 receptor; in assay [1]; against Melanocortin receptor 4; in assay [2]; in assay [3] (insect cells); on Adenosine receptor A3 (cho-k1)) was “Not Active” each time. The Ki entry in assay [1] was “Not Active”.
As for `CN(C)CCCN1c2ccccc2Sc2ccc(Cl)cc21` [CHLORPROMAZINE], the IC50 in assay [1] (read-out: IC50) is 2670 nM; in assay [2], “Not Active”; in assay [3] (insect cells), “Not Active”; against Adenosine receptor A3 (cho-k1), “Not Active”. The Ki in assay [1] (read-out: Ki) was determined as 1780 nM.
For CADMIUM ACETATE, the IC50 result (at Histamine H2 receptor; in assay [1]; at Melanocortin receptor 4; in assay [2]; at Adenosine receptor A3 (cho-k1)) was “Not Active” throughout. For the same molecule, the inhibition constant (Ki) result (at Histamine H2 receptor; in assay [1]; at Melanocortin receptor 4; in assay [2]; on Adenosine receptor A3 (cho-k1)) was “Not Active” throughout.

What is called IC50 is the concentration that gives 50% inhibition. The Ki is a measure of affinity in units of concentration, obtained from inhibition or displacement.
